For data set [1], the system named is Calpain II. Put plainly: Kapp/[I] progress curve method, Calpain II (Table 1C). Also on record: unit not given here. The following applies: Rabbit Calpain II, Suc-leu-tyr-amidomethylcoumarin. It is filed as biochemical. As for the experimental part:
(§1) The Halo-Ketone Peptides, like the substituted isocoumarins, are irreversible inhibitors of Calpain. We determined the Kapp /[I] values for various members of this class of compounds against Calpains I and II. For comparison, we also determined these values against the additional thiol proteases Papain and Cathepsin B for at least one Halo-Ketone Peptide.
(§2) We assayed Calpain I and II using Suc-leu-tyr-amidomethylcoumarin. Papain was assayed using benzoyl-arg-4-nitroanilide, and Cathepsin B (bovine) was assayed using CBZ-lys-4-nitrophenyl ester. We followed the progress curve method of Tian and Tsou, Biochemistry, 21:1028-1032 (1982), the disclosure of which is hereby incorporated by reference, to derive kinetic data. Briefly, this method makes use of the equation: [formula] where [P.infin. ] represents the concentration of product formed at a time approaching infinity, A is the Kapp in the presence of substrate (S), K is the Michaelis constant and [Y] is the concentration of the inhibitor. Since [S] and [Y] are known and V and K can be determined, Kapp can be readily determined.

Data set [2] relates to Calpain in crude brain extracts. The data set can be described thus: Ca2+-stimulated spectrin proteolysis in crude brain extracts (Example 2). Format: biochemical. The following applies: 100 μM. The procedure, abridged: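 Brain tissue was homogenized in 10 mM Tris pH 7.4, 0.32 M sucrose, 1 mM EGTA and 1 mM DTT, and nuclei and debris were removed. Calpain activity was scored as Ca^2+-stimulated proteolysis of endogenous spectrin.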

In data set [3] the target is Calpain I (Rattus norvegicus, UniProt P97571). The data set can be described thus: Kapp/[I] progress curve method, rat Calpain I (Table 1C). Format: biochemical. The following applies: Suc-leu-tyr-amidomethylcoumarin. As to the method: as §1, §2
In another data set the test system is Calpain within platelets. Put plainly: Platelet membrane permeation assay, spectrin proteolysis (Examples 4A, 4B). Format: cell-based, rat. As to conditions: for inhibition of Calpain within platelets: 100 μM, A23187 1 μM; for pIC50: concentration at which 50% of the Calpain activation present in controls occurred. The procedure, abridged:
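Rat (Sprague-Dawley) platelets at 10^7 cells/ml in HEPES buffer pH 7.4, preincubated 5 min with inhibitor, then 5 min with 1 μM A23187 to activate calpain. Spectrin proteolysis assessed by SDS-PAGE and anti-spectrin immunoblot, quantified by densitometry.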

For another data set, the system named is Calpain. Put plainly: Kapp/[I] of other irreversible Calpain Inhibitors. Format: biochemical. An excerpt: The kinetic constants of other irreversible Calpain Inhibitors include the following with Kapp /[I] in parentheses: E-64 (7500), E64-d (23000) and Z-leu-leu-tyr-CHN2 (230000). E-64 is commercially available from Sigma Chemical Co., and is shown here to be a poor inhibitor of Calpain.

The target of data set [4] is T1, Calpain I from human erythrocytes (Homo sapiens, UniProt P07384).
T1 construct: Calpain I from human erythrocytes and calpain II from rabbit were assayed using Suc-Leu-Tyr-AMC; from tissue; host or cells: human erythrocytes
T1 sequence (P07384 1-714): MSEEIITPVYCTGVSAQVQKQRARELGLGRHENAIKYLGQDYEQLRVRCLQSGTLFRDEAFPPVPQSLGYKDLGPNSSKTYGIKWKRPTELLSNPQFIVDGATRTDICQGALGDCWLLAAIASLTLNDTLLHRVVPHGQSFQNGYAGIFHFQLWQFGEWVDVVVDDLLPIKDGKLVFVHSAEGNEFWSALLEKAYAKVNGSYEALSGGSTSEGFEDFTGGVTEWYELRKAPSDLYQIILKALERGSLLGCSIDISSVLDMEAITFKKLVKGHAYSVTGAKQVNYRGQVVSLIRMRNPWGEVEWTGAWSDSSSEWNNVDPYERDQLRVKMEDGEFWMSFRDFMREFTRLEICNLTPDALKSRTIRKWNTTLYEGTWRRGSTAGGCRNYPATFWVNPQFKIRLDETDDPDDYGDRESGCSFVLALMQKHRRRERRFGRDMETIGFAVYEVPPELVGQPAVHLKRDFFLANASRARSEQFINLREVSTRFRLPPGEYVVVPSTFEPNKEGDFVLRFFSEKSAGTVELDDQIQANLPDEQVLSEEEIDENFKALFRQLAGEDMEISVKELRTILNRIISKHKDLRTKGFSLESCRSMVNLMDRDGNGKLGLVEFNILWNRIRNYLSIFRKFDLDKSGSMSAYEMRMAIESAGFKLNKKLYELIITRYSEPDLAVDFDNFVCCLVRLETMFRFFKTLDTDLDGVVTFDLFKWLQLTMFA
T1 sequence (P04632 1-268 partner): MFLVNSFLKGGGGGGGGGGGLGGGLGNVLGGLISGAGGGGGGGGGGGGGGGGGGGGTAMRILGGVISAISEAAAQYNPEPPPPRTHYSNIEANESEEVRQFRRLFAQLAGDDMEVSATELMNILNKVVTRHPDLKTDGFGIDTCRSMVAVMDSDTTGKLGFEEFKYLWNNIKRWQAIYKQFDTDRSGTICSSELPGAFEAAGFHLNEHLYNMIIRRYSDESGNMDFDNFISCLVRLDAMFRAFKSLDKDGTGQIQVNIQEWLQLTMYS
The data set can be described thus: Calpain I Ki (Table 1B(i)). It is filed as biochemical. As to conditions: Suc-Leu-Tyr-amidomethylcoumarin, HEPES pH 7.2. As to the method:
The Peptide Keto-Compounds are reversible inhibitors of Calpains and other thiol proteases. […] Cathepsin B from bovine spleen was assayed using Z-Lys-4-nitrophenylphosphate as substrate.
The Ki value for the inhibition of Calpains and cathepsin B by several Peptide Keto-Compounds are shown in μM (micromolar). The values for leupeptin, which is commercially available from Calbiochem of La Jolla, Calif., are shown for comparison.

Data set [5] can be described thus: Stability in liver homogenates. It is filed as in vitro ADME. The following applies: unit assumed. The text has this: (§3) We determined the haft-life of several Peptide Keto-Compounds in both plasma and liver homogenates.
The next data set has as its target Cathepsin B (Bos taurus, UniProt P07688). Put plainly: Cathepsin B KI (Table 1B(ii)). It is filed as biochemical. As to conditions: read-out: KI CathB. An excerpt: (§4) We tested the ability of an additional group of Peptide Keto-Compounds to inhibit several proteases in order to evaluate their specificity for Calpain.
For data set [6], the target named is Calpain II. Put plainly: Calpain II KI (Table 1B(ii)). It is filed as biochemical.
Source text: as §4

For data set [7], the system named is rats with middle cerebral artery occlusion. Put plainly: MCA occlusion model (Example 6). It is filed as in vivo, rat. The following applies: infusion into femoral vein by 24 hr minipump; 24 hours after occlusion (FIG. 2). As to the method:
Male Sprague-Dawley albino rats weighing approximately 250-300 grams were anesthetized with pentobarbital (70 mg/kg, i.p.). The neck region was shaven and a 2 cm incision was made. The superficial fascia was teased away with tissue forceps and blunt tip tissue scissors using a spread method. The right common carotid artery was isolated away from the vagus nerve and tied off with a single suture (3.0 silk). The external carotid was permanently occluded by suturing. The bifurcation of the internal carotid and pterygopalatine arteries was exposed and a single microaneurysm clip was placed on the pterygopalatine. Another microaneurysm clip was placed on the common carotid just proximal to the external/internal bifurcation. A suture was placed loosely around the common carotid and a lumen was made in the vessel with the tip of a 25 g needle. A 40 mm nylon suture was prepared by melting the tip to smooth the pointed end and marked with a dot exactly 17.5 mm from the melted end. […]
Twenty-four hours after occlusion, the brains of these animals were removed and sliced into 2 mm sections. […] The sizes of the infarcted tissue zone ([…]) and impaired zone (area with partial development of red color) were evaluated using quantitative morphometry. […]

The target in another data set is Chym (Bos taurus, UniProt P00766). The data set can be described thus: Chym KI (Table 1B(ii)). Format: biochemical.
Source text: as §4

The next data set concerns the target PP Elastase (Sus scrofa, UniProt P00772). The data set can be described thus: PP Elastase KI (Table 1B(ii)). It is filed as biochemical.
Source text: as §4

Data set [8] addresses T2, Calpain I (Homo sapiens, UniProt P07384).
T2 sequence (P07384 1-714): T1 sequence (P07384 1-714)
T2 sequence (P04632 1-268 partner): T1 sequence (P04632 1-268 partner)
Put plainly: Calpain I KI (Table 1B(ii)). It is filed as biochemical. As to conditions: for pKi: Table 1B(ii).
Source text: as §4

Another data set can be described thus: Stability in plasma. It is filed as in vitro ADME. The following applies: unit assumed.
Source text: as §3

The subject of another data set is hippocampal slices. Put plainly: Hippocampal slice EPSP recovery from severe hypoxia (FIG. 5). It is filed as cell-based, rat. The following applies: one hour incubation. As for the experimental part: These studies were performed in a manner similar to that of Example 7B, except using a hypoxic environment in place of the anoxia of Example 7B. […] The control slices experienced little or no recovery.

The structures appear in SMILES notation. pIC50, pKi: −log10 of the molar value. Where a SMILES comes first, the peptide text is derived from it. A value given as a limit tells only on which side of the number the result lay.

The pKi is −log10 of the Ki, conventionally taken in molar units. One may read the pIC50 as −log10 of the IC50, conventionally taken in molar units.

Sequence of Calpain I (Rattus norvegicus, UniProt P97571) (P97571 whole entry): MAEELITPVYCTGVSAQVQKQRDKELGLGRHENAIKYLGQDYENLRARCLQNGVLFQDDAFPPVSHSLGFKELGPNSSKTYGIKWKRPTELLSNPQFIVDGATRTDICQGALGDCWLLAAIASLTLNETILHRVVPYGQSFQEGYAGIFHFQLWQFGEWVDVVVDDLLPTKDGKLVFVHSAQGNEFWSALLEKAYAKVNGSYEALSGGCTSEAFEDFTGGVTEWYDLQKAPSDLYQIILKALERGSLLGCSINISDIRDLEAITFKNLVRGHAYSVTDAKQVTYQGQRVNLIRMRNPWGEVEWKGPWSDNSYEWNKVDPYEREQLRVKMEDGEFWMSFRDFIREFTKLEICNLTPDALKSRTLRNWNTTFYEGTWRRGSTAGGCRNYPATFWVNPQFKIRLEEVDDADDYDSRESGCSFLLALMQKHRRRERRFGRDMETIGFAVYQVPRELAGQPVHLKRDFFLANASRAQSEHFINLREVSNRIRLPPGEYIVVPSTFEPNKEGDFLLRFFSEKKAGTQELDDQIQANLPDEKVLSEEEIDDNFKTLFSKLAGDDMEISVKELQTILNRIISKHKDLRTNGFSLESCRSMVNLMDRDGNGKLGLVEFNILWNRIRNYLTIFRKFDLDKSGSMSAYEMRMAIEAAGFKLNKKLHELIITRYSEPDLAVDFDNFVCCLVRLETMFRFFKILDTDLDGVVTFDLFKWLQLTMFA
Sequence of Calpain I (Rattus norvegicus, UniProt P97571) (Q64537 whole entry partner): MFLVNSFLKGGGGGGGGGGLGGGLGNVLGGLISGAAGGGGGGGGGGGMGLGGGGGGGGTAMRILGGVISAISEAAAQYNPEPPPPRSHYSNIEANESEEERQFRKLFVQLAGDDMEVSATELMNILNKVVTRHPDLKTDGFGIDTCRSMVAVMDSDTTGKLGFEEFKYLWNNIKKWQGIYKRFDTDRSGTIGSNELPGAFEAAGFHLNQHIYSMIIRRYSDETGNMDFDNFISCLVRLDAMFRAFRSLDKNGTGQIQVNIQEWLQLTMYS
Sequence of PP Elastase (P00772 27-266): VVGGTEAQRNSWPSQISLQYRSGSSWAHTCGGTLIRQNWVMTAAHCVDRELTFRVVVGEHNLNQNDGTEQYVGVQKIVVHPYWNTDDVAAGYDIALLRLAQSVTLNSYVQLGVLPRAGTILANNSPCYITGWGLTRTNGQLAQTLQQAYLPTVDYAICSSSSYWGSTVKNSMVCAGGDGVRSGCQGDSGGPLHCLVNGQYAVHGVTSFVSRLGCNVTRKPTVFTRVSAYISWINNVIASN

For the compound `CC(=O)N[C@@H](CC(C)C)C(=O)N[C@@H](Cc1ccccc1)C(=O)CCl` [Ac-Leu-Phe-CH2 Cl] (HELM PEPTIDE1{[ac].L.F.[ClC[*:1]]}$$$$V2.0), the “Kapp/[I] CII” value with Calpain II [1] is recorded as 33400. Further, the “inhibition of spectrin proteolysis in crude brain extracts” value in [2] is “significant inhibition”. Further, the “Kapp/[I] CI” value at Calpain I [3] was found to be 25900. In addition, the “inhibition of Calpain within platelets” value with Calpain within platelets is reported as “significant inhibition”.

Take `CCOC(=O)[C@H]1O[C@@H]1C(=O)N[C@@H](CC(C)C)C(=O)NCCC(C)C` [Example E64-d, Loxastatin]: the “Kapp/[I] Calpain” value in the data set with Calpain worked out at 23000.

In the case of `CC(C)C[C@H](NC(=O)[C@H]1O[C@@H]1C(=O)O)C(=O)NCCCCN=C(N)N` [Example E-64, E-64, reference compound], the “Kapp/[I] Calpain” value with Calpain stood at 7500. For the same compound, the “effect on intracellular (platelet) Calpain” value with Calpain within platelets (concentration not given) is “little effect”.

`COC(=O)C(=O)C(C)NC(=O)C(C)NC(=O)C(C)NC(=O)OCc1ccccc1` (stereo not drawn) [Z-Ala-Ala-Ala-CO2 Me] showed a pKi in data set [4] of 3.70.

`CC(C)C[C@H](NC(=O)CNC(=O)OCc1ccccc1)C(=O)N[C@@H](Cc1ccccc1)C(=O)CCl` [Z-Gly-Leu-Phe-CH2 Cl, reference compound] (HELM PEPTIDE1{[O=C(OCc1ccccc1)[*:2]].G.L.F.[ClC[*:1]]}$$$$V2.0): the “Kapp/[I] CII” value with Calpain II [1] amounted to 946000. Moreover, the “inhibition of spectrin proteolysis in crude brain extracts” value in data set [2] is listed as “significant inhibition”. Moreover, the “Kapp/[I] CI” value on Calpain I [3] is 284000. For the same compound, the “inhibition of Calpain within platelets” value in the data set on Calpain within platelets is given as “significant inhibition”.

In the case of `CCNC(=O)C(=O)[C@H](CC)NC(=O)[C@H](CC(C)C)NC(=O)OCc1ccccc1` [Z-Leu-Abu-CONHEt, Z-Leu-Abu-CONH-Et], the t1/2 liver in data set [5] is over 1 h. Also, the negative-log Ki (pKi) at Cathepsin B was 5.62; at Calpain II [6] it was 6.64; on Chym, under 3.82; at PP Elastase, 4.19; on Calpain I [8] it was 6.30. The “size of infarcted area” value in [7] is listed as “reduction in the size of the infarcted area”. At Calpain I [8] (ratio of KI values), the “better inhibitor of calpain I than Z-Leu-Phe-CONH-Et” value worked out at 14 fold. The same compound had a pIC50 with Calpain within platelets of 5.82. In “Stability in plasma”, this compound gave a t1/2 plasma of over 1 h.

On to `CCNC(=O)C(=O)[C@H](Cc1ccccc1)NC(=O)[C@H](CC(C)C)NC(=O)OCc1ccccc1` [Z-Leu-Phe-CONHEt, Z-Leu-Phe-CONH-Et], for which, in the data set with hippocampal slices, the “percent recovery of EPSP from severe hypoxia (FIG. 5)” value is about 100%. The compound also registered a t1/2 liver in data set [5] of over 1 h. Also, the pKi was 5.22 at Cathepsin B; 6.49 at Calpain II [6]; 4.14 on Chym; under 3.82 at PP Elastase; 5.15 on Calpain I [8]. Also, the “size of infarcted area” value in [7] is “reduction in the size of the infarcted area”. The same compound had a pIC50 in the data set with Calpain within platelets of 5.77. For the same compound, the t1/2 plasma in the data set “Stability in plasma” is over 1 h.

Regarding `CC(C)C[C@H](NC(=O)OCc1ccccc1)C(=O)N[C@@H](CC(C)C)C(=O)N[C@@H](Cc1ccc(O)cc1)C(=O)C=[N+]=[N-]` [Z-leu-leu-tyr-CHN2] (HELM PEPTIDE1{[O=C(OCc1ccccc1)[*:2]].L.L.Y.[[N-]=[N+]=C[*:1]]}$$$$V2.0), in the data set on Calpain, the “Kapp/[I] Calpain” value is 230000.

These data come from US5444042A, “Method of treatment of neurodegeneration with calpain inhibitors” (Cortex Pharmaceuticals, priority 1994, dated 1995).
